Data as given in patent US20200248178A1, “COMBINATION THERAPIES FOR TREATING MUSCULAR DYSTROPHY” (Sarepta Therapeutics, Inc., priority 2017, published 2020).
Several values for one entry are separate records, joined by “and”; a condition that tells them apart may be missing. Equal values may be shown once.

Experiments:
NF-κB pathways = conditions: phase I, adults; cited from earlier work
NF-κB = conditions: cited from earlier work
Mdx mice = conditions: cited from earlier work
cNF-κB = conditions: cited from earlier work
patient cells = conditions: cited from earlier work
mouse model of DMD = conditions: cited from earlier work
dystrophin [1] = assay: Study 3 (Study 301): dystrophin in muscle biopsy by Western blot; type: in vivo, human
Method: Dystrophin levels in muscle tissue were assessed by Western blot. In the 12 patients with evaluable results, the pre-treatment dystrophin level was 0.16%±0.12% (mean±standard deviation) of the dystrophin level in a healthy subject and 0.44%±0.43% after 48 weeks of treatment with EXONDYS 51® (p<0.05). The median increase after 48 weeks was 0.1%.

dystrophin [2] = assay: Study 201/202 Week 180 muscle biopsy, Western blot; type: in vivo, human
Method: (§1) All 12 patients who participated in Study 1 continued treatment with open-label EXONDYS 51® weekly for an additional 4 years in Study 2. The 4 patients who had been randomized to placebo were re-randomized 1:1 to EXONDYS 51® 30 or 50 mg/kg/week such that there were 6 patients on each dose. Patients who participated in Study 2 were compared to an external control group. The primary clinical efficacy outcome measure was the 6MWT. […] The average dystrophin protein level after 180 weeks of treatment with EXONDYS 51® was 0.93% of the dystrophin level in healthy subjects.
(§2) In order to obtain a comprehensive view of dystrophin expression, biopsies from Study 201/202 were analyzed by three complementary assays. First, Western blot was used to quantitate dystrophin following extraction of protein from muscle tissue. Second, immunohistochemical (IHC) images were evaluated by trained, blinded pathologists to assess the percent dystrophin positive fibers (PDPF), providing information on sarcolemma localization and distribution of dystrophin in muscle fibers. Finally, the IHC images were also assessed by a computer algorithm to measure fiber intensity and to quantify dystrophin at the sarcolemmal membrane.

dystrophin [3] = assay: Study 201/202 Week 180 biopsy, IHC percent dystrophin positive fibers (PDPF); type: in vivo, human
Method: as §2

dystrophin [4] = assay: Study 201/202 Week 180 biopsy, IHC fiber intensity; type: in vivo, human
Method: as §2

[5] = test system: DMD patients amenable to exon 51 skipping; assay: 6 Minute Walk Test, Study 201/202 vs external control; type: in vivo, human
Method: In Study 1, patients were randomized to receive weekly infusions of EXONDYS 51° (30 mg/kg, n=4); EXONDYS 51° (50 mg/kg, n=4), or placebo (n=4) for 24 weeks. The primary endpoint was dystrophin production; a clinical outcome measure, the 6-minute walk test (6MWT), was also assessed. The 6MWT measures the distance that a patient can walk on a flat, hard surface in a period of 6 minutes.
as §1
The pre-specified criteria for identification of patients for the external control groups were based on the inclusion criteria for Study 201/202. These included baseline age, steroid use and specific DMD mutation. Each of these represent key prognostic factors that enable identification of a relatively homogenous population that would be expected to decline on the 6MWT.
A group with DMD mutations amenable to exon 51 skipping therapy (N=13, primary external control group).
The 6MWT assessments in both Study 201/202 and the external registries were conducted in a standardized manner according to international guidelines.

[6] = test system: DMD patients amenable to exon 51 skipping; assay: Loss of ambulation, Study 201/202 vs external controls; type: in vivo, human
Text: Ambulatory compromise and irreversible loss of ambulation (LOA) are hallmarks of the progressive muscle degeneration characteristic of DMD. It is a reliable overall indicator of the severity of disease progression and strongly correlates with functional measures such as the 6MWT; it is also less influenced by motivational factors. Furthermore, LOA predicts other major disease milestones such as the need for ventilatory support and survival (Bello 2016). Once confined to a wheelchair, other symptoms tend to follow in rapid succession. Consistent with results of the 6MWT, fewer eteplirsen treated boys lost ambulation (2/12) compared to the external control patients who were amenable to exon 51 skipping therapy (10/13) over the four year time period.
Kaplan-Meier analyses for loss of ambulation were conducted, accounting for missing data. At year three the estimated probability for loss of ambulation was 17% for eteplirsen treated boys compared to 46% of boys from both external control cohorts. At year four, Kaplan-Meier estimates of loss of ambulation was 17% for eteplirsen treated boys compared to 85% for the external control boys amenable to exon 51 skipping. This difference in loss of ambulation over the 4-year period was statistically significant, with a nominal p-value of 0.011 (FIG. 8).

DMD patients [7] = assay: North Star Ambulatory Assessment (NSAA); type: in vivo, human; conditions: end of year three; vs Italian Telethon group
Text: The NSAA is a clinician-reported outcome instrument specifically designed to measure function in ambulatory patients with DMD. The 17 items are each scored on a 0-2 ordinal scale and include assessments of abilities such as rising from the floor, climbing and descending a step, 10 meter walk/run and lifting the head. Over the first year, both the eteplirsen treated boys and the Italian Telethon group declined at a similar rate. However, following year one, as was observed on 6MWT, the decline in function for the eteplirsen group slowed and by the end of year three there was a 2.4 point greater decline for the untreated boys. This difference is of clinical relevance and may represent loss or impairment of up to 2 activities of daily living.

DMD patients [8] = assay: Ability to rise from supine without external support; type: in vivo, human; conditions: by year three; external control 8%
Text: The ability to rise from supine is a critical activity for DMD patients, is one of the early abilities to be lost and may be predictive of loss of ambulation. In an analysis comparing the ability to rise from a supine position (without external support), 92% of eteplirsen treated vs 85% external control patients had the ability to rise without external support at baseline. By year three, 55% of eteplirsen vs 8% of external control patients had the ability to rise without external support.

DMD patients [9] = assay: Pulmonary function tests (FVC % predicted); type: in vivo, human; conditions: literature >5% annual decline
Text: In some embodiments, MEP may decline before changes in other pulmonary function tests, including MIP and FVC. In certain embodiments, MEP may be an early indicator of respiratory dysfunction. In certain embodiments, FVC may be used to measure the total volume of air expelled during forced exhalation after maximum inspiration. In patients with DMD, FVC increases concomitantly with physical growth until the early teens. However, as growth slows or is stunted by disease progression, and muscle weakness progresses, the vital capacity enters a descending phase and declines at an average rate of about 8 to 8.5 percent per year after 10 to 12 years of age. In certain embodiments, MIP percent predicted (MIP adjusted for weight), MEP percent predicted (MEP adjusted for age) and FVC percent predicted (FVC adjusted for age and height) are supportive analyses.
Respiratory function in DMD is progressively impaired over time as the dystrophic process affects respiratory muscles, including the diaphragm, leading to significant morbidity and mortality. Eteplirsen treated boys had slower deterioration of respiratory muscle function as measured by FVC % predicted (decrease of ˜2.5% per year) when compared to data from the published literature (>5% annual decline). […]

immune response = test system: immune response; parameters: species or system juvenile rats; conditions: rat, in vivo
Text: Phosphorothioates are known to cause a number of other target organ toxicities in animals, including complement activation and pro-inflammatory effects, coagulopathies, thrombocytopenia, vascular injury, and hepatic Kuppfer cell basophilia (Levin 1998; Monteith 1999; Levin 2001; Henry 2008; Frazier 2014; Engelhardt 2015; Frazier 2015).

[10] = test system: exon 51 of dystrophin pre-mRNA; conditions: normal human skeletal muscle cells or DMD patient muscle cells; cited from earlier work
[11] = test system: exon 51 of dystrophin pre-mRNA; conditions: hDMD mouse model; cited from earlier work

In the case of `CC/C=C\C/C=C\C/C=C\C/C=C\C/C=C\C/C=C\CCC(=O)NCCNC(=O)c1ccccc1O` [CAT-1004, N-(2-[(4Z,7Z,10Z,13Z,16Z,19Z)-docosa-4,7,10,13,16,19-hexaenamido]ethyl)-2-hydroxybenzamide], the safety and tolerability (NF-κB pathways) is given as “safe, well tolerated”.

For `CC/C=C\C/C=C\C/C=C\C/C=C\C/C=C\CCCC(=O)NCCNC(=O)c1ccccc1O` [CAT-1041], the phenotype (NF-κB; GRMD dog, long-term treatment) is given as “improves the phenotype”, the diaphragm function (NF-κB; dog DMD model) is given as “improved diaphragm function” and the exercise endurance (Mdx mice; mdx mice) is given as “increased exercise endurance”. The inflammation and fibrosis (Mdx mice; mdx mice) was “reduced inflammation and fibrosis”, the muscle function (Mdx mice; mdx mice) was “preserves muscle function” and the muscle fibrosis (Mdx mice; mdx mice, long-term studies) was “reduces muscle fibrosis”. For the same compound, the skeletal muscle weight (Mdx mice; mdx mice, long-term studies) was “increases skeletal muscle weight”, the phenotype (Mdx mice; mdx mouse, long-term treatment) was “improves the phenotype” and the diaphragm function (Mdx mice; mouse DMD model) was “improved diaphragm function”. For the same compound, the “cNF-κB activation in vitro” value (cNF-κB) was “inhibit cNF-κB activation in vitro”.

For `O=C1CN(/N=C/c2ccc(-c3ccc([N+](=O)[O-])cc3)o2)C(O)=N1` [dantrolene], the antisense-mediated exon skipping (patient cells) is listed as “enhance antisense-mediated exon skipping” and the antisense-mediated exon skipping (mouse model of DMD) is listed as “enhance antisense-mediated exon skipping”.

In the case of Eteplirsen, the “Week 48 % normal dystrophin” value (dystrophin [1]; 30 mg/kg weekly, week 48, individual patients 1-12 and mean, listed as EXONDYS 51, 30 mg/kg) is reported as 0.10 % normal dystrophin and 1.02 % normal dystrophin and 0.30 % normal dystrophin and 0.42 % normal dystrophin and 1.57 % normal dystrophin and 0.12 % normal dystrophin and 0.47 % normal dystrophin and 0.09 % normal dystrophin and 0.21 % normal dystrophin and 0.26 % normal dystrophin and 0.36 % normal dystrophin and 0.37 % normal dystrophin, the “median increase in dystrophin after 48 weeks” value (dystrophin [1]; 12 evaluable patients) is reported as 0.1% and the “dystrophin level after 48 weeks of treatment (mean±standard deviation)” value (dystrophin [1]; 12 evaluable patients, 30 mg/kg weekly, p<0.05 vs pre-treatment) is reported as 0.44%±0.43%. The “Change from Baseline % normal dystrophin” value (dystrophin [1]; week 48 vs pre-treatment baseline, individual patients 1-12 and mean, listed as EXONDYS 51) was 0.06 % normal dystrophin and 0.85 % normal dystrophin and −0.07 % normal dystrophin and 0.25 % normal dystrophin and 1.33 % normal dystrophin and 0.01 % normal dystrophin (2×) and 0.43 % normal dystrophin and 0.07 % normal dystrophin and 0.03 % normal dystrophin and 0.13 % normal dystrophin and 0.31 % normal dystrophin, the “Difference of Means (Treated vs. Untreated)” value (shortened to “Difference of Means”) (dystrophin [2]; Western Blot, Week 180) was “+0.85%” and the “Treated (Mean % Dystrophin of Normal)” value (dystrophin [2]; Western Blot, Week 180) was 0.93%. The “Fold Increase in de novo dystrophin” value (dystrophin [2]; Western Blot, Week 180, relative to untreated controls) was 11.6 fold, the “average dystrophin protein level after 180 weeks of treatment” value (dystrophin [2]; Western blot, eleven patients, 30 or 50 mg/kg/week) was 0.93 % of the dystrophin level in healthy subjects and the “Difference of Means” value (dystrophin [3]) was “+16.27%”. The “Treated (Mean % Dystrophin of Normal)” value (dystrophin [3]) was 17.39%, the “Fold Increase” value (dystrophin [3]; treated vs untreated) was 15.5 fold and the “Difference of Means” value (dystrophin [4]) was “+13.20%”. The “Treated (Mean % Dystrophin of Normal)” value (dystrophin [4]) was 22.61%, the “Fold Increase” value (dystrophin [4]; treated vs untreated) was 2.4 fold and the “6MWT treatment benefit in sensitivity analyses” value ([5]; four year results, covariates age, 6MWT, steroid use) was over 100 meter. For the same compound, the “6MWT advantage vs external control” value ([5]; year four, p=0.0005) was 162 meter, the “6MWT advantage vs external control” value ([5]; year three, N=12 vs N=13, p=0.005) was 148 meter and the “boys who lost ambulation” value ([6]; over a three year time period, external control (any exon skipping) 18/50) was 2/12. The “boys who lost ambulation” value ([6]; over the four year time period, external control 10/13) was 2/12, the “Kaplan-Meier estimate of loss of ambulation” value ([6]; year four, external control 85%, p 0.011) was 17% and the “Kaplan-Meier estimated probability for loss of ambulation” value ([6]; year three, external controls 46%) was 17%. For the same compound, the “NSAA: greater decline for the untreated boys” value (DMD patients [7]) was 2.4 point, the “patients with ability to rise without external support” value (DMD patients [8]) was 55% and the “FVC % predicted decrease” value (DMD patients [9]) was about 2.5 % per year. The “effect on the immune response” value (immune response) was “no adverse effect on the immune response”, the “induction of exon 51 skipping in vitro” value [10] was “potent inducer of exon 51 skipping” and the “exon 51 skipping in vivo” value [11] was “confirmed in vivo”.
